Measured values as given in US4968698A, “Nitrogen containing heterocyclic compounds” (Burroughs Wellcome Co., priority 1984, dated 1990).
Converted amounts (≈) assume the structure as drawn. Read-outs that look alike come from different tables or passages of the source.

Test system: Trichomonas vaginalis
Experiment: In vitro activity against T. vaginalis (IC50 determination)
Type: cell-based
Conditions: 37° C., aerobic, Modified Diamonds Medium
Description: The antiprotozoal e.g. antitrichomonal, activity of the compounds of the present invention may be assessed by conventional methods, for example by determining the minimum inhibition concentration (m.i.c.) or 50% inhibition level (IC50).
Modified Diamonds Medium (MDM) was prepared according to the method described in J. Kulda et al., American Journal of Obstetrics and Gynaecology 1970, 108, 908-18 and 4 cm^3 of the medium was pipetted into each of a series of tubes (usually 16 tubes). To each tube was added 0.5 cm^3 of varying concentration of a solution (usually in ethanol+MDM) or suspension of the test drug. Duplicate tubes for each drug concentration were prepared.
Finally, to each tube was added T. vaginalis (0.5 cm^3) at a concentration of 1×10^5 cm^-3,) to give a final trichomonad concentration of 1×10^4 cm^-3 in each tube. The tubes were then incubated (aerobically) at 37° C. and the resulting trichomonad numbers were counted at 24 and 48 hours using a haemacytometer.
This information was then used to determine the 50% inhibition concentration (IC50).

[1] = 24 hr, 1×10^4 trichomonads cm^-3, read-out: IC50 24 hr
[2] = 48 hr, 1×10^4 trichomonads cm^-3, read-out: IC50 48 hr

Molecule CCCCOc1ccc2c(c1)CCN=C2/C=C/c1cccc2ccccc12 [Example 135, (E)-6-Butyloxy-3,4-dihydro-1-[2-(1-naphthyl)vinyl]isoquinoline] has an IC50 [1] of 1.3 µg/mL (≈ 3.66 µM) and an IC50 [2] of 1.6 µg/mL (≈ 4.5 µM).

COc1ccc(OCc2ccccc2)c2c1C(C=Cc1ccccc1)=NCC2 [Example 174, 5-Benzyloxy-3,4-dihydro-8-methoxy-1-styryl-isoquinoline] showed an IC50 [1] of 1.4 µg/mL (≈ 3.79 µM) and an IC50 [2] of 2 µg/mL (≈ 5.41 µM).

For CCCCOc1ccc2c(c1)CCN=C2C=Cc1ccc(C(C)(C)C)cc1 [Example 15, 6-Butyloxy-1-(4-t-butylstyryl)-3,4-dihydroisoquinoline], the IC50 [1] was 1.5 µg/mL (≈ 4.15 µM) and the IC50 [2] was 2.8 µg/mL (≈ 7.74 µM).

C/C=C/C=C/C1=NCCc2cc(OCCCCCC)ccc21 [Example 129, (E,E)-6-Hexyloxy-3,4-dihydro-1-(penta-1,3-dienyl)isoquinoline] showed an IC50 [1] of 2.9 µg/mL (≈ 9.75 µM) and an IC50 [2] of 3.1 µg/mL (≈ 10.4 µM).

Molecule C/C=C/C=C/C1=NCCc2cc(OCc3ccccc3)ccc21 [Example 130, (E,E)-6-Benzyloxy-3,4-dihydro-1-(penta-1,3-dienyl)isoquinoline] has an IC50 [1] of 3.6 µg/mL (≈ 11.9 µM) and an IC50 [2] of 5.4 µg/mL (≈ 17.8 µM).

CCCCOc1ccc2c(c1)CCN=C2C=Cc1ccc(OC)cc1OC [Example 14, 6-Butyloxy-3,4-dihydro-1-(2,4-dimethoxystyryl)isoquinoline] showed an IC50 [1] of 5.5 µg/mL (≈ 15 µM) and an IC50 [2] of 8 µg/mL (≈ 21.9 µM).

In the case of C=CCCOc1ccc2c(c1)CCN=C2C=Cc1ccc(Cl)cc1Cl [Example 46, 6-(But-3-enyloxy)-1-(2,4-dichlorostyryl)-3,4-dihydroisoquinoline], the IC50 [1] is reported as 1.1 µg/mL (≈ 2.95 µM) and the IC50 [2] is reported as 1.3 µg/mL (≈ 3.49 µM).

CC=CC1=NCCc2cc(OCCC)ccc21 [Example 137, 3,4-Dihydro-1-prop-1-enyl-6-propyloxyisoquinoline] showed an IC50 [1] of 1 µg/mL (≈ 4.36 µM) and an IC50 [2] of 1.7 µg/mL (≈ 7.41 µM).

With C(=C\c1ccsc1)/C1=NCCc2cc(OCc3ccccc3)ccc21 [Example 106, (E)-6-Benzyloxy-3,4-dihydro-1-(3-thienyl)vinyl isoquinoline] the IC50 [1] was 1.4 µg/mL (≈ 4.05 µM) and the IC50 [2] was 3.7 µg/mL (≈ 10.7 µM).

Molecule CCCCOc1ccc2c(c1)CCN=C2C=Cc1ccc([N+](=O)[O-])cc1 [Example 19, 6-Butyloxy-3,4-dihydro-1-(4-nitrostyryl)isoquinoline] has an IC50 [1] of 10 µg/mL (≈ 28.5 µM) and an IC50 [2] of 13.5 µg/mL (≈ 38.5 µM).

In the case of O=[N+]([O-])c1ccc(C=CC2=NCCc3cc(Oc4ccc(Cl)cc4)ccc32)cc1 [Example 68, 6-(4-Chlorophenoxy)-3,4-dihydro-1-(4-nitrostyryl)-isoquinoline], the IC50 [1] is reported as 5 µg/mL (≈ 12.4 µM) and the IC50 [2] is reported as 5.3 µg/mL (≈ 13.1 µM).

Work on CCCc1c2c(cc(OC)c1OCc1ccccc1)C(C=Cc1ccc(Cl)cc1)=NCC2 [Example 176, 6-Benzyloxy-1-(4-chlorostyryl)-3,4-dihydro-7-methoxy-5-propylisoquinoline] yielded an IC50 [1] of 1.7 µg/mL (≈ 3.81 µM) and an IC50 [2] of 3.1 µg/mL (≈ 6.95 µM).

Work on Clc1ccc(C=CC2=NCCc3cc(OCc4ccc(Cl)cc4Cl)ccc32)c(Cl)c1 [Example 92, 6-(2,4-Dichlorobenzyloxy)-1-(2,4-dichlorostyryl)-3,4-dihydroisoquinoline] yielded an IC50 [1] of 0.5 µg/mL (≈ 1.05 µM) and an IC50 [2] of 1 µg/mL (≈ 2.1 µM).

CC(C)(C)CCOc1ccc2c(c1)CCN=C2C=Cc1ccc(Cl)cc1Cl [Example 33, 1-(2,4-Dichlorostyryl)-3,4-dihydro-6-(3,3-dimethylbutyloxy)isoquinoline] showed an IC50 [1] of 0.7 µg/mL (≈ 1.74 µM) and an IC50 [2] of 1 µg/mL (≈ 2.49 µM).

CCCOc1cc2c(cc1OCCC)C(C=Cc1ccc(Cl)cc1Cl)=NC(C)C2 (stereo not shown) [Example 158, 1-(2,4-Dichlorostyryl)-3,4-dihydro-3-methyl-6,7-dipropyloxyisoquinoline] gave an IC50 [1] of 0.8 µg/mL (≈ 1.85 µM) and an IC50 [2] of 1.1 µg/mL (≈ 2.54 µM).

C(/C=C/c1ccccc1)=C\C1=NCCc2cc(OCc3ccccc3)ccc21 [Example 126, (E,E)-6-Benzyloxy-3,4-dihydro-1-(4-phenylbuta-1,3-dienyl)isoquinoline] gave an IC50 [1] of 1.5 µg/mL (≈ 4.1 µM) and an IC50 [2] of 1.7 µg/mL (≈ 4.65 µM).

CCCOc1ccc2c(c1)CCN=C2/C=C/c1ccc([N+](=O)[O-])o1 [Example 113, (E)-3,4-Dihydro-6-propyloxy-1-[2-(5-nitro-2-furyl)]vinyl isoquinoline] was tested, and the IC50 [1] was 0.7 µg/mL (≈ 2.14 µM) and the IC50 [2] was 1.2 µg/mL (≈ 3.68 µM).

CCCCCCOc1ccc2c(c1)CCN=C2C=Cc1ccccc1 [Example 74, 6-Hexyloxy-3,4-dihydro-1-styrylisoquinoline] showed an IC50 [1] of 3.3 µg/mL (≈ 9.9 µM) and an IC50 [2] of 0.9 µg/mL (≈ 2.7 µM).

With CCCCOc1ccc2c(c1)CCN=C2/C(C)=C/c1ccccc1 [Example 153, (E)-6-Butyloxy-3,4-dihydro-1-(2-phenyl-1-methylvinyl)isoquinoline] the IC50 [1] was 0.3 µg/mL (≈ 0.939 µM) and the IC50 [2] was 0.5 µg/mL (≈ 1.57 µM).

With CCCCOc1cc2c(cc1OCC)CCN=C2C=Cc1ccc(Cl)cc1Cl [Example 161, 7-Butyloxy-1-(2,4-dichlorostyryl)-6-ethoxy-3,4-dihydroisoquinoline] the IC50 [1] was 0.7 µg/mL (≈ 1.67 µM) and the IC50 [2] was 1.4 µg/mL (≈ 3.35 µM).

Work on Clc1ccc(C=CC2=NCCc3cc(Oc4ccccc4)ccc32)cc1 [Example 65, 1-(4-Chlorostyryl)-3,4-dihydro-6-phenoxy-isoquinoline] yielded an IC50 [1] of 1.2 µg/mL (≈ 3.33 µM) and an IC50 [2] of 1.6 µg/mL (≈ 4.45 µM).

CCCOc1cc2c(cc1OCCC)C(C=Cc1ccc(Cl)cc1Cl)=NCC2 [Example 155, 1-(2,4-Dichlorostyryl)-3,4-dihydro-6,7-dipropyloxyisoquinoline] was tested, and the IC50 [1] was 1.2 µg/mL (≈ 2.87 µM) and the IC50 [2] was 2.2 µg/mL (≈ 5.26 µM).

CC(C)(C)c1ccc(COc2ccc3c(c2)CCN=C3C=Cc2ccc(Cl)cc2Cl)cc1 [Example 81, 6-(4-t-Butylbenzyloxy)-1-(2,4-dichlorostyryl)-3,4-dihydroisoquinoline] gave an IC50 [1] of 1.1 µg/mL (≈ 2.37 µM) and an IC50 [2] of 1.6 µg/mL (≈ 3.45 µM).

CC(C)COc1ccc2c(c1)CCN=C2C=Cc1ccccc1Cl [Example 47, 1-(2-Chlorostyryl)-3,4-dihydro-6-(2-methylpropyloxy)-isoquinoline] showed an IC50 [1] of 1.1 µg/mL (≈ 3.24 µM) and an IC50 [2] of 1.7 µg/mL (≈ 5 µM).

CC(C)(C)c1ccc(C=CC2=NCCc3cc(OCc4ccccc4)ccc32)cc1 [Example 60, 6-Benzyloxy-1-(4-t-butylstyryl)-3,4-dihydroisoquinoline] gave an IC50 [1] of 5.6 µg/mL (≈ 14.2 µM) and an IC50 [2] of 10.5 µg/mL (≈ 26.5 µM).

CCCCOc1ccc2c(c1)CCN=C2C=Cc1ccccc1Cl [Example 12, 6-Butyloxy-1-(2-chlorostyryl)-3,4-dihydroisoquinoline] gave an IC50 [1] of 1.2 µg/mL (≈ 3.53 µM) and an IC50 [2] of 2 µg/mL (≈ 5.88 µM).

COc1ccc(OCc2ccccc2)c2c1C(C=Cc1ccc(C#N)cc1)=NCC2 [Example 175, 5-Benzyloxy-1-(4-cyanostyryl)-3,4-dihydro-8-methoxyisoquinoline] was tested, and the IC50 [1] was 0.4 µg/mL (≈ 1.01 µM) and the IC50 [2] was 1 µg/mL (≈ 2.54 µM).

CCCCCCOc1cc2c(cc1OCCCCCC)C(C=Cc1ccc(Cl)cc1)=NCC2 [Example 165, 1-(4-Chlorostyryl)-6,7-dihexyloxy-3,4-dihydroisoquinoline] showed an IC50 [1] of 9 µg/mL (≈ 19.2 µM) and an IC50 [2] of 10 µg/mL (≈ 21.4 µM).

For Brc1csc(/C=C/C2=NCCc3cc(OCc4ccccc4)ccc32)c1 [Example 108, (E)-6-Benzyloxy-3,4-dihydro-1-[2-(4-bromo-2-thienyl)vinyl]isoquinoline], the IC50 [1] was 2.7 µg/mL (≈ 6.36 µM) and the IC50 [2] was 6.1 µg/mL (≈ 14.4 µM).

CCCCOc1ccc2c(c1)CCN=C2/C(Cl)=C/c1ccccc1 [Example 150] gave an IC50 [1] of 0.2 µg/mL (≈ 0.588 µM) and an IC50 [2] of 0.2 µg/mL (≈ 0.588 µM).

Molecule CCCCOc1ccc2c(c1)CCN=C2/C(Br)=C/c1ccccc1 [Example 147, (Z)-6-Butyloxy-1-(1-bromo-2-phenylvinyl)-3,4-dihydroisoquinoline] has an IC50 [1] of 0.2 µg/mL (≈ 0.52 µM) and an IC50 [2] of 0.3 µg/mL (≈ 0.781 µM).

Molecule COc1ccc(C=CC2=NCCc3cc(OCc4ccccc4)ccc32)c(OC)c1 [Example 56, 6-Benzyloxy-3,4-dihydro-1-(2,4-dimethoxystyryl)isoquinoline] has an IC50 [1] of 8 µg/mL (≈ 20 µM) and an IC50 [2] of 8 µg/mL (≈ 20 µM).

Molecule C(=C\c1cccs1)/C1=NCCc2cc(OCc3ccccc3)ccc21 [Example 104, (E)-6-Benzyloxy-3,4-dihydro-1-[2-(2-thienyl)vinyl]isoquinoline] has an IC50 [1] of 7.4 µg/mL (≈ 21.4 µM) and an IC50 [2] of 7.3 µg/mL (≈ 21.1 µM).

Molecule CCCCOc1ccc2c(c1)CCN=C2C=Cc1ccc(-c2ccccc2)cc1 [Example 24, 6-Butyloxy-3,4-dihydro-1-(4-phenylstyryl)isoquinoline] has an IC50 [1] of 1.2 µg/mL (≈ 3.15 µM) and an IC50 [2] of 128 µg/mL (≈ 336 µM).

Work on CC(C)(C)c1ccc(Oc2ccc3c(c2)CCN=C3C=Cc2ccccc2)cc1 [Example 73, 6-(4-t-Butylphenoxy)-3,4-dihydro-1-styrylisoquinoline] yielded an IC50 [1] of 0.4 µg/mL (≈ 1.05 µM) and an IC50 [2] of 1.1 µg/mL (≈ 2.88 µM).

CCCCOc1cc2c(cc1OCC)C(C=Cc1ccc(Cl)cc1Cl)=NCC2 [Example 160, 6-Butyloxy-1-(2,4-dichlorostyryl)-7-ethoxy-3,4-dihydroisoquinoline] was tested, and the IC50 [1] was 0.6 µg/mL (≈ 1.43 µM) and the IC50 [2] was 1 µg/mL (≈ 2.39 µM).

Molecule Clc1ccc(C=CC2=NCCc3c2ccc(OCc2ccccc2)c3OCc2ccccc2)cc1 [Example 172, 5,6-Bis(benzyloxy)-1-(4-chlorostyryl)-3,4-dihydroisoquinoline] has an IC50 [1] of 0.7 µg/mL (≈ 1.46 µM) and an IC50 [2] of 2 µg/mL (≈ 4.17 µM).

Cl/C(=C\c1ccccc1)C1=NCCc2cc(OCc3ccccc3)ccc21 [Example 151, (Z)-6-Benzyloxy-1-(1-chloro-2-phenylvinyl)-3,4-dihydroisoquinoline] gave an IC50 [1] of 0.3 µg/mL (≈ 0.802 µM) and an IC50 [2] of 0.3 µg/mL (≈ 0.802 µM).

CCCCOc1ccc2c(c1)CCN=C2/C=C/c1cccs1 [Example 105, (E)-6-Butyloxy-3,4-dihydro-1-[2-(2-thienyl)vinyl]isoquinoline] showed an IC50 [1] of 2 µg/mL (≈ 6.42 µM) and an IC50 [2] of 6.7 µg/mL (≈ 21.5 µM).

Molecule C(=Cc1ccccc1)C1=NCCc2cc(OCc3ccccc3)ccc21 [Example 53, 6-Benzyloxy-3,4-dihydro-1-styrylisoquinoline] has an IC50 [1] of 3.2 µg/mL (≈ 9.43 µM) and an IC50 [2] of 5.5 µg/mL (≈ 16.2 µM).

In the case of C(=Cc1ccccc1)C1=NCCc2c1ccc(OCc1ccccc1)c2OCc1ccccc1 [Example 171, 5,6-Bis(benzyloxy)-3,4-dihydro-1-styrylisoquinoline], the IC50 [1] is reported as 0.8 µg/mL (≈ 1.8 µM) and the IC50 [2] is reported as 1.8 µg/mL (≈ 4.04 µM).
